Common to all, as to assay type: cell-based
The target in experiment [1] is T1, human adrenergic receptor (ADR) α1A (Homo sapiens, UniProt P35348).
T1 construct: host or cells: rat chem-1 cells
T1 sequence (P35348 1-466): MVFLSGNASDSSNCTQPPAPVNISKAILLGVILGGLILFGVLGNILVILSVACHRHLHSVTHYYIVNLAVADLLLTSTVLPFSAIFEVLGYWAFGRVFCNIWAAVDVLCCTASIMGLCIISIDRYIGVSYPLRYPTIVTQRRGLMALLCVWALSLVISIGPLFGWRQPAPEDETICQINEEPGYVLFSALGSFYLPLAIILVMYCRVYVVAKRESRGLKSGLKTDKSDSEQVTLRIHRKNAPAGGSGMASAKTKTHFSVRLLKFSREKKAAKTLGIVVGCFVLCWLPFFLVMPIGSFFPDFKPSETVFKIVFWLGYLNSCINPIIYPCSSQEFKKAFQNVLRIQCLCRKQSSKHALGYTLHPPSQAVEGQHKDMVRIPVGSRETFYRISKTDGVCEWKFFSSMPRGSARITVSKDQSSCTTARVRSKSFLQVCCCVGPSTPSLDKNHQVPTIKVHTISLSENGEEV
The experiment is described as follows: ADRα1A activation, Ca2+ influx (Fluo-8) in overexpressing chem-1 cells. As to conditions: Chem-1.

The target in experiment [2] is T2, human adrenergic receptor (ADR) β2 (Homo sapiens, UniProt P07550).
T2 construct: host or cells: rat chem-1 cells
The experiment is described as follows: ADRβ2 activation, Ca2+ influx (Fluo-8) in overexpressing chem-1 cells.

Experiment [3] addresses T3, human adrenergic receptor (ADR) β1 (Homo sapiens, UniProt P08588).
T3 construct: host or cells: rat chem-1 cells
Description: ADRβ1 activation, Ca2+ influx (Fluo-8) in overexpressing chem-1 cells. The conditions noted are these: Chem-1, read-out: ADRβ1 Emax. The source says: (§1) Cells overexpressing human ADRs α1A, α1B, α1D, α2A, α2B, β1 and β2 (Eurofins Discovery Services, St. Charles, MO, USA, product numbers: HTS087RTA, HTS158RTA, HTS216RTA, HTS096RTA, HTS157LRTA, HTS104RTA and HTS073RTA, respectively) were used to study the potency (EC50) and efficacy (Emax) of the selected compounds for these receptors by quantifying Ca^2+ influx upon receptor activation. ADRα1A, α1B, α1D, α2A, β1 and β2 were overexpressed in rat chem-1 cells. ADRα2B was overexpressed in HEK293 cells. The cells were seeded (10,000–50,000 cells/well) in a black 96-well plate (VWR International, Leuven, Belgium) and incubated at 37 °C and 5% CO2 for 24 h. After 24 h, the cells were washed with Hank’s balanced salt solution (HBSS) (Gibco, Paisley, UK) containing 0.35 g/L sodium bicarbonate and incubated with 5 µg/mL Fluo-8 AM in HBSS (pH 7.4) supplemented with 2.5 mM probenecid for 1 h. […] Peak tops of the obtained fluorescence response–time curves were corrected for baseline fluorescence and used to construct concentration–response relationships.
(§2) Concentration–response relationships for TAAR1 activation are presented as percentages of the maximal intracellular cAMP level induced by full the TAAR1 agonist phenethylamine and corrected for baseline cAMP accumulation. […] Experiments were run in duplicate in 7–9 independent experiments for ADR and were run in 3–5 independent experiments for TAAR1.

Experiment [4] deals with T4, human adrenergic receptor (ADR) α1B (Homo sapiens, UniProt P35368).
T4 construct: host or cells: rat chem-1 cells
T4 sequence (P35368 1-520): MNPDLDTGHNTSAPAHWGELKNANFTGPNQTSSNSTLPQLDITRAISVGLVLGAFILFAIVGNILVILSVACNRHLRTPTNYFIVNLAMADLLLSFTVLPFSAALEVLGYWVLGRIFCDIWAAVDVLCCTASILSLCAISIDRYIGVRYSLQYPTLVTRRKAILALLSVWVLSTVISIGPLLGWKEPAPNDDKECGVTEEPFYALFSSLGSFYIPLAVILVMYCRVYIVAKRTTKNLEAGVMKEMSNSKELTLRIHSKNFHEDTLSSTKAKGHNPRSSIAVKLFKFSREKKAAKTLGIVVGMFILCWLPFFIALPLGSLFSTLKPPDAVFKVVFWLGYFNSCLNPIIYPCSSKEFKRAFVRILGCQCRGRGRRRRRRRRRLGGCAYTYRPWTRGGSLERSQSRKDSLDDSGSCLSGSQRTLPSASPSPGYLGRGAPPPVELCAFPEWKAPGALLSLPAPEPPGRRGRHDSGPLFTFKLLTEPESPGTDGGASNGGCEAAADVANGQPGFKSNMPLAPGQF
The experiment is described as follows: ADRα1B activation, Ca2+ influx (Fluo-8) in overexpressing chem-1 cells.
Excerpt: as §1, §2

Experiment [5] concerns the target T5, human adrenergic receptor (ADR) α1D (Homo sapiens, UniProt P25100).
T5 construct: host or cells: rat chem-1 cells
T5 sequence (P25100 1-572): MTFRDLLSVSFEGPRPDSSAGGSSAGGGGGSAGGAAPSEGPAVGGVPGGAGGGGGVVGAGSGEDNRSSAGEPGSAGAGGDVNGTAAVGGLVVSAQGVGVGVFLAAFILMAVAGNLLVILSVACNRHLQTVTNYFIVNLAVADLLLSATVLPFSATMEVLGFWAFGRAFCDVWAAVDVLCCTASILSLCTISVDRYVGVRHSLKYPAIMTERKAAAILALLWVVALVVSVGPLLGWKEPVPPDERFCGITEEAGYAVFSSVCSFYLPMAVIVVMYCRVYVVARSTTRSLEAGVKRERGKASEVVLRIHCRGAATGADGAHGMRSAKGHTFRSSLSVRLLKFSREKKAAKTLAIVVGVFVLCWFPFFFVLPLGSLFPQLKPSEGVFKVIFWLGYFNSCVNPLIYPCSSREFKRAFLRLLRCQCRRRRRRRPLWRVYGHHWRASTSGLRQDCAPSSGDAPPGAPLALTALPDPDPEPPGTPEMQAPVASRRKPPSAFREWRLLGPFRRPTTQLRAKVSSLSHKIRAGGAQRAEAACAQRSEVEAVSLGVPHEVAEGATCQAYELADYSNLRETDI
The experiment is described as follows: ADRα1D activation, Ca2+ influx (Fluo-8) in overexpressing chem-1 cells.

The target in experiment [6] is T6, human adrenergic receptor (ADR) α2A (Homo sapiens, UniProt P08913).
T6 construct: host or cells: rat chem-1 cells
T6 sequence (P08913 1-465): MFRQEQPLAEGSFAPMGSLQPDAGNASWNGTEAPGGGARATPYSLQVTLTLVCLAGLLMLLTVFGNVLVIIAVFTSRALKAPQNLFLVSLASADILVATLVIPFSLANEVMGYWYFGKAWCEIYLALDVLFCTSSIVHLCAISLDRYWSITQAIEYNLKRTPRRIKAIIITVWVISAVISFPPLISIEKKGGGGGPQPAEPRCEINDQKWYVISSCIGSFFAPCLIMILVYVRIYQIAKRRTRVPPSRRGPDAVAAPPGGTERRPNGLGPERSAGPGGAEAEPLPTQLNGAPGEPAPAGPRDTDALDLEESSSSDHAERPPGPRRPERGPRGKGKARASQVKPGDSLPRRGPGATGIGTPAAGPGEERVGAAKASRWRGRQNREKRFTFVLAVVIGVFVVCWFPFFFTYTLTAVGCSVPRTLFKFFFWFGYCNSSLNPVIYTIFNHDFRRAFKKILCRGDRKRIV
The experiment is described as follows: ADRα2A activation, Ca2+ influx (Fluo-8) in overexpressing chem-1 cells.

The mark [7] stands for this setting: Ca2+ response, chem-1 cells, average (95% confidence interval), 7–9 experiments.
[8] abbreviates: % of maximal signal obtained by adrenaline, average (95% CI).

This note sets out measurements from publication PMC11174489, “In Vitro Activation of Human Adrenergic Receptors and Trace Amine-Associated Receptor 1 by Phenethylamine Analogues Present in Food Supplements” (Nutrients, 2024).

T3 sequence (P08588 whole entry): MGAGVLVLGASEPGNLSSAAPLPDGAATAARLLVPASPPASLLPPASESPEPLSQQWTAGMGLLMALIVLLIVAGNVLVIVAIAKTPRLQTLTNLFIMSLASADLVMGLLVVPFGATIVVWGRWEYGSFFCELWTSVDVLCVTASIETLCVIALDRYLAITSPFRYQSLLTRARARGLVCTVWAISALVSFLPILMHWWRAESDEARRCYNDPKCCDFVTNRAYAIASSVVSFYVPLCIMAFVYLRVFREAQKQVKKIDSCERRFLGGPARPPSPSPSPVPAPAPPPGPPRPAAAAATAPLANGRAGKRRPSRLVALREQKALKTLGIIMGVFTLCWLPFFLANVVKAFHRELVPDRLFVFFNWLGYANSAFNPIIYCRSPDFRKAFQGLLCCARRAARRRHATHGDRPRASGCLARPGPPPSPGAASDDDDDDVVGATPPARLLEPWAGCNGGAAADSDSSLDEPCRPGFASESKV

As to `CNC[C@H](O)c1ccc(O)c(O)c1` [Adrenaline, adrenaline, reference compound], the Emax in experiment [1] was found to be 98%; in experiment [2] (Chem-1), 104%; in experiment [3], 99%; in experiment [4] (Chem-1, read-out: ADRα1B Emax), 99%; in experiment [5] (Chem-1) it was 99%; in experiment [6] (Chem-1, % of maximal signal obtained by adrenaline, average (95% CI)), 105%. In addition, the half-maximal effective concentration (EC50) in experiment [5] (setting [7]) is 0.0017 µM.

With Methyltyramine, in experiment [2] (setting [8]), the “ADRβ2 Emax” value is “-”. For the same molecule, the EC50 in experiment [2] (setting [7]) is above 300 µM; in experiment [4] (Ca2+ response, chem-1 cells, average (95% confidence interval), 7–9 experiments, read-out: ADRα1B EC50) it was above 300 µM; in experiment [6] (setting [7]) it was above 300 µM. For the same molecule, the “ADRα1B Emax” value in experiment [4] (setting [8]) is on record as “-”. For the same molecule, in experiment [5] (setting [8]), the “ADRα1D Emax” value was “-”.

What is called Emax is the greatest response seen or fitted, relative to the assay's reference. As usually defined, the EC50 is the concentration that produces a half-maximal response.
